Data: patent US20260285850A1, “SUBSTITUTED OXAZOLIDINONES AND IMIDAZOLINONES AS HERBICIDES” (FMC CORPORATION, priority 2023, published 2026)

Legend:
Format in all cases: in vivo
[1] = system: green foxtail (Setaria viridis); assay: Test A postemergence application, visual injury rating 0-100
Method in brief: (§1)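 Visual injury ratings (0, no effect; 100, complete control) were assigned relative to untreated plants 10 days after treatment. Test chemicals, formulated with a surfactant-containing non-phytotoxic solvent, were applied in loam-sand soil either as a directed soil spray before emergence or to emerged plants, and plants were kept in a greenhouse.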

[2] = system: horseweed (Erigeron canadensis); assay: as above
Method in brief: as §1

[3] = system: ragweed (common ragweed, Ambrosia artemisiifolia); assay: as above
Method in brief: as §1

kochia (Bassia scoparia) [4] = assay: as above
Method in brief: as §1

[5] = system: ryegrass, Italian (italian ryegrass, Lolium multiflorum); assay: as above
Method in brief: as §1

[6] = system: palmer (palmer amaranth, palmer pigweed, Amaranthus palmeri); assay: as above
Method in brief: as §1

corn (Zea mays) [7] = assay: as above
Method in brief: as §1

[8] = system: barnyardgrass (Echinochloa crus-galli); assay: as above
Method in brief: as §1

[9] = system: oat, wild (wild oat, Avena fatua); assay: as above
Method in brief: as §1

[10] = system: blackgrass (Alopecurus myosuroides); assay: as above
Method in brief: as §1

[11] = system: wheat (Triticum aestivum); assay: as above
Method in brief: as §1

[12] = system: galium (catchweed bedstraw, Galium aparine); assay: as above
Method in brief: as §1

soybean (Glycine max) [13] = assay: as above
Method in brief: as §1

[14] = system: green foxtail (Setaria viridis); assay: Test A preemergence soil spray, visual injury rating 0-100; conditions: 10 days
Method in brief: as §1

[15] = system: ragweed (common ragweed, Ambrosia artemisiifolia); assay: as above; conditions: 10 days
Method in brief: as §1

kochia (Bassia scoparia) [16] = assay: as above; conditions: 10 days
Method in brief: as §1

[17] = system: ryegrass, Italian (italian ryegrass, Lolium multiflorum); assay: as above; conditions: 10 days
Method in brief: as §1

corn (Zea mays) [18] = assay: as above; conditions: 10 days
Method in brief: as §1

[19] = system: barnyardgrass (Echinochloa crus-galli); assay: as above; conditions: 10 days
Method in brief: as §1

[20] = system: oat, wild (wild oat, Avena fatua); assay: as above; conditions: 10 days
Method in brief: as §1

[21] = system: blackgrass (Alopecurus myosuroides); assay: as above; conditions: 10 days
Method in brief: as §1

[22] = system: wheat (Triticum aestivum); assay: as above; conditions: 10 days
Method in brief: as §1

soybean (Glycine max) [23] = assay: as above; conditions: 10 days
Method in brief: as §1

[24] = system: sedge, umbrella (small-flower umbrella sedge, Cyperus difformis); assay: Test B flooded paddy test, visual plant response rating 0-100; conditions: 250 g ai/ha, Flood, applied to paddy water, evaluated after 13 days
Method in brief: (§2)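 Each species was raised to two leaves before flooding to a 3 cm depth and dosing the water with compound. Injury was assessed by eye after 13 days under greenhouse conditions.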

rice (Oryza sativa) = assay: as above; conditions: 250 g ai/ha, Flood, applied to paddy water, evaluated after 13 days
Method in brief: as §2

[25] = system: ducksalad (Heteranthera limosa); assay: as above; conditions: 250 g ai/ha, Flood, applied to paddy water, evaluated after 13 days
Method in brief: as §2

[26] = system: barnyardgrass (Echinochloa crusgalli); assay: as above; conditions: 250 g ai/ha, Flood, applied to paddy water, evaluated after 13 days
Method in brief: as §2

[27] = 62 g ai/ha, postemergence, 10 days, 0 = no effect, 100 = complete control
[28] = Postemergence, 16 g ai/ha, greenhouse 10 days, 0 no effect, 100 complete control
[29] = 62 g ai/ha, 0 = no effect, 100 = complete control

## CCOC(=O)C1=CCC(NC(=O)C2(C)CN(c3cc(F)cc(Cl)c3)C(=O)O2)C1 (centres unmarked) [Compound 134]
[1]; [27]
  Foxtail, Green plant response rating (0-100): 0
[1]; [28]
  Foxtail, Green plant response rating (0 to 100 scale): 0
[2]; [27]
  Horseweed plant response rating (0-100): 0
[2]; [28]
  Horseweed plant response rating (0 to 100 scale): 0
[3]; [27]
  Ragweed plant response rating (0-100): 0
[3]; [28]
  Ragweed plant response rating (0 to 100 scale): 0
Kochia (Bassia scoparia) [4]; [27]
  Kochia plant response rating (0-100): 0
Kochia (Bassia scoparia) [4]; [28]
  Kochia plant response rating (0 to 100 scale): 0
[5]; [27]
  Ryegrass, Italian plant response rating (0-100): 0
[5]; [28]
  Ryegrass, Italian plant response rating (0 to 100 scale): 0
[6]; [27]
  Pigweed, Palmer plant response rating (0-100): 0
[6]; [28]
  Pigweed, Palmer plant response rating (0 to 100 scale): 0
Corn (Zea mays) [7]; [27]
  Corn plant response rating (0-100): 0
Corn (Zea mays) [7]; [28]
  Corn plant response rating (0 to 100 scale): 0
[8]; [27]
  Barnyardgrass plant response rating (0-100): 0
[8]; [28]
  Barnyardgrass plant response rating (0 to 100 scale): 0
[9]; [27]
  Oat, Wild plant response rating (0-100): 0
[9]; [28]
  Oat, Wild plant response rating (0 to 100 scale): 0
[10]; [27]
  Blackgrass plant response rating (0-100): 0
[10]; [28]
  Blackgrass plant response rating (0 to 100 scale): 0
[11]; [27]
  Wheat plant response rating (0-100): 0
[11]; [28]
  Wheat plant response rating (0 to 100 scale): 0
[12]; [27]
  Galium plant response rating (0-100): 0
[12]; [28]
  Galium plant response rating (0 to 100 scale): 0
Soybean (Glycine max) [13]; [27]
  Soybean plant response rating (0-100): 0
Soybean (Glycine max) [13]; [28]
  Soybean plant response rating (0 to 100 scale): 0
[14]; 16 g ai/ha, 0 to 100 scale
  Foxtail, Green plant response rating: 0
[14]; [29]
  Foxtail, Green plant response rating (0-100): 0
[15]; 16 g ai/ha, 0 to 100 scale
  Ragweed plant response rating: 0
[15]; [29]
  Ragweed plant response rating (0-100): 0
Kochia (Bassia scoparia) [16]; 16 g ai/ha, 0 to 100 scale
  Kochia plant response rating: 0
Kochia (Bassia scoparia) [16]; [29]
  Kochia plant response rating (0-100): 0
[17]; 16 g ai/ha, 0 to 100 scale
  Ryegrass, Italian plant response rating: 0
[17]; [29]
  Ryegrass, Italian plant response rating (0-100): 0
Corn (Zea mays) [18]; 16 g ai/ha, 0 to 100 scale
  Corn plant response rating: 0
Corn (Zea mays) [18]; [29]
  Corn plant response rating (0-100): 0
[19]; 16 g ai/ha, 0 to 100 scale
  Barnyardgrass plant response rating: 0
[19]; [29]
  Barnyardgrass plant response rating (0-100): 0
[20]; 16 g ai/ha, 0 to 100 scale
  Oat, Wild plant response rating: 0
[20]; [29]
  Oat, Wild plant response rating (0-100): 0
[21]; 16 g ai/ha, 0 to 100 scale
  Blackgrass plant response rating: 0
[21]; [29]
  Blackgrass plant response rating (0-100): 30
[22]; 16 g ai/ha, 0 to 100 scale
  Wheat plant response rating: 0
[22]; [29]
  Wheat plant response rating (0-100): 0
Soybean (Glycine max) [23]; 16 g ai/ha, 0 to 100 scale
  Soybean plant response rating: 0
Soybean (Glycine max) [23]; [29]
  Soybean plant response rating (0-100): 0
[24]
  Plant response rating, Sedge, Umbrella (0 to 100 scale, 0 is no effect and 100 is complete control): 0
Rice (Oryza sativa)
  Plant response rating, Rice (0 to 100 scale, 0 is no effect and 100 is complete control): 0
[25]
  Plant response rating, Ducksalad (0 to 100 scale, 0 is no effect and 100 is complete control): 0
[26]
  Plant response rating, Barnyardgrass (0 to 100 scale, 0 is no effect and 100 is complete control): 0
